Measured values from patent publication US20070093416A1, “Human beta-defensin secretion promoter” (priority 2003, published 2007).

Test system: β-defensin-2
Experiment: β-Defensin Secretion Promotion Confirmatory Test-3 (Concentration Dependency)
Format: in vivo, human
Conditions: 3 healthy adults
Method: To evaluate β-defensin secretion promotion effects and concentration dependency of an organic acid, the following tests were conducted using 3 healthy adults as subjects. Saliva secreted for 3 minutes from rested subjects was collected by a spitting method (hereunder, this is referred to as the control). Thereafter, 1 ml of 0.01 wt % malic acid (amount of malic acid ingested: 0.1 mg) was placed in the oral cavity, held for one minute, and then collected together with the secreted saliva. The concentration of β-defensin-2 in the saliva was measured by ELISA, and the amount of β-defensin-2 secreted over one minute using 0.1 mg of malic acid was calculated based on the formula below. Note that the saliva amount (ml) in the formula below was calculated based on the weight of the collected saliva (g) assuming 1 g of saliva=1 ml of saliva. The same test was conducted, respectively, using 0.05, 0.1, 0.2, 0.5, or 1 wt % malic acid aqueous solution (amounts of ingested: 0.5, 1, 2, 5, and 10 mg). [table]

## O=C(O)CC(O)C(=O)O (centres unmarked) [malic acid]
1 ml of 0.01-1 wt % malic acid aqueous solution (0.1-10 mg) held in oral cavity for one minute, FIG. 3
  amount of β-defensin-2 secreted in saliva: increases depending on the concentration
Concentration of 0.01% (amount ingested: 0.1 mg), 1 ml held in oral cavity for one minute
  human β-defensin-2 secretion induction effect: has a human β-defensin-2 secretion induction effect
